Paper PMC7180617, “Biological Evaluation of 3-Benzylidenechromanones and Their Spiropyrazolines-Based Analogues” (Molecules, 2020)

Legend:
WM-115 cells = test: MTT cytotoxicity assay, WM-115; format: cell-based, human; settings: MTT, 46 h + 2 h incubation
Protocol: (§1) The first stage of the study used the MTT viability test to determine the cytotoxicity of ten compounds, i.e., 3-arylidenechromanone, 3-arylideneflavanone, spirochromanone and spiro- flavanone analogues, against four human cancer cell lines: HL-60, NALM-6, WM-115 and COLO-205.
(§2) Cytotoxicity was tested against human skin melanoma cells (WM-115, ECACC, Salisbury, UK), two human leukemia cell lines, viz. promyelocytic leukemia (HL-60) and lymphoblastic leukemia (NALM-6), and human colon adenocarcinoma cells (COLO-205). The cell lines COLO-205, WM-115 and HL-60 used in this work came from the ATCC American Type Culture Collection (Manassas, VA, USA), whereas the NALM-6 cell line was purchased from the German Collection of Microorganisms and Cell Cultures (Braunschweig, Germany). The leukaemia cells and colon adenocarcinoma were cultured in RPMI 1640 medium (Invitrogen, Grand Island, NY, USA) supplemented with 10% fetal bovine serum (FBS; Invitrogen) and gentamicin (25 µg/mL; KRKA, Novo Mesto, Slovenia). For melanoma WM-115 cells, Dulbecco’s minimal essential medium (DMEM; Invitrogen) was used. All cell lines were cultured at 37 °C in a humidified atmosphere of 5% CO2 in air.
(§3) For all experiments, the studied compounds were dissolved in DMSO (Sigma-Aldrich) and were further diluted in culture medium to obtain <0.1% DMSO concentration. In each experiment, controls with and without 0.1% DMSO were performed. The cytotoxicity of all compounds and of the reference compounds 4-chromanone and 3-benzylideneflavanone was determined by the MTT assay, i.e., 3-(4,5-dimethylthiazol-2-yl)-2,5-diphenyltetrazolium bromide (Sigma, St. Louis, MO, USA), which measures cellular dehydrogenase activity. Exponentially growing cells were seeded a day before the experiment onto a 96-well microplates (Nunc, Roskilde, Denmark) at a density up to 6–8 × 10^3 cells/well (depending on the cell line). Subsequently, various concentrations of the studied compounds freshly prepared in DMSO and diluted with complete culture medium were added. All compounds were tested for their cytotoxicity at a final concentration of 10^−7–10^−3 M. After 46 h of incubation with the studied compounds, the cells were treated with the MTT reagent and incubation was continued for another two hours. MTT – formazan crystals were dissolved in 20% sodium dodecyl sulphate (SDS, Sigma-Aldrich) and 50% DMF (Sigma-Aldrich) at pH 4.7; following this, absorbance was read at 570 nm on a multifunctional Victor ELISA-plate reader (Perkin Elmer, Turku, Finland). The IC50 values, i.e., the concentration of the test compound required to reduce the cell survival fraction to 50% of controls, were calculated from concentration-response curves and used as a measure of the sensitivity of the cells to a given treatment. As a control, cultured cells were grown in the absence of drugs. The data points represent the means of at least five to ten repeats ± standard deviation (S.D.).

NALM-6 cells = test: MTT cytotoxicity assay, NALM-6; format: cell-based, human; settings: MTT, 46 h + 2 h incubation
Protocol: as §1, §2, §3

COLO-205 cells = test: MTT cytotoxicity assay, COLO-205; format: cell-based, human; settings: 46 h + 2 h incubation
Protocol: as §1, §2, §3

[1] = Lipophilicity (logP) by RP-TLC
Description: Lipophilicity is one of the most important physicochemical properties in pharmaceutical research. It can be considered a key determinant of the pharmacokinetic properties of a drug. It is commonly measured by the partition coefficient between water and n-octanol, being expressed as logP [14]. […] Knowledge of the partition coefficient is valuable: it is frequently used in structure–activity relationship (SAR) and quantitative structure–activity relationship (QSAR) studies. The experimental lipophilicity of the synthesized compounds, viz. benzylideneflavanones, benzylidenechromanones and spiropyrazolines, was determined using RP-TLC. […] It is important to examine the relationship between structure of the compound and its lipophilicity and cytotoxicity.
The RP-TLC experiments were performed on TLC plates (5 × 10 cm) RP-18 F254S (Merck, Darmstadt, Germany). The synthesized compounds were dissolved in N,N-dimethylformamide DMF (2 mg/mL). […] A DMF-water solvent system was used as mobile phase. […] All experiments were performed at room temperature. The logP parameter was calculated using the equation from the calibration curve.

HL-60 cells = test: MTT cytotoxicity assay, HL-60; format: cell-based, human; settings: MTT, 46 h + 2 h incubation
Protocol: as §1, §2, §3

erythrocytes = test: Red blood cell morphology (phase-contrast microscopy); format: cell-based; settings: 2% erythrocyte suspension, 37 °C, 1 h, phase contrast 400×
Protocol: Studies on erythrocyte morphology complement the erythrotoxicity studies because they provide information on potential immediate interactions of the tested compounds with the erythrocyte lipid bilayer, and the possibility of creating pathological forms of erythrocytes, which are not able to carry oxygen. The effects of the synthesized compounds, and the two reference compounds chromanone and flavanone, on the morphology of erythrocytes is shown in Figure 6. Briefly, 2% RBC suspension was incubated with 0.9% NaCl (control samples) or tested compounds at various concentrations corresponding to their activity towards cancer cell lines.
A 2% erythrocyte suspension was incubated at 37 °C for one hour with various concentrations of synthesized compounds. The morphology of the RBCs was examined by means of a phase contrast Opta-Tech inverted microscope, at 400× magnification, equipped with software (OptaView 7) for image analysis.

[2] = system: red blood cells (RBC membrane integrity); test: Red blood cell lysis assay; format: cell-based; settings: 2% RBC suspension, 37 °C, 1 h
Description: All synthesized compounds with potential biological activity have to be tested for blood compatibility since xenobiotics will react with blood cells upon administration. In this case, biocompatibility refers to the quantification of cellular and plasma components of the blood. The measurement of the integrity of RBC membrane is considered a simple and reliable method for estimating hemocompatibility.
The studies on biological material were approved by the Bioethics Committee of the Medical University of Lodz, Poland (RNN/109/16/KE). The blood samples were obtained from healthy donors at the Blood Donation Centre in Lodz. The procedure for plasma preparation for erythrotoxicity studies was described previously. The influence of synthesized compounds as well as two reference compounds flavanone and chromanone on RBC membrane integrity was performed by lysis assay which was conducted according to our previous protocol. Briefly, 2% RBC suspension in 0.9% NaCl was incubated at 37 °C for one hour with the tested compounds at various concentrations corresponding to their activity towards cancer cell lines or 0.9% NaCl (control). The samples were centrifuged at 3000 rpm for 10 min and the absorbance of the supernatant was measured at 550 nm. The results are presented as percentage of haemolysis where a sample containing 10 μL of 2.0% v/v Triton X-100 was regarded as a positive control contributing to 100% of haemolysis. A sample containing saline solution represented spontaneous haemolysis of RBCs (control). The studies were performed on four biological samples obtained from different blood donors (n = 4). The results are presented as mean ± standard deviation (SD). The coefficient of variability for the method was counted: W = 9.51%, n = 5.

SMILES	IC50 (WM-115 cells) [µM]	IC50 (NALM-6 cells) [µM]	IC50 (COLO-205 cells) [µM]	logP ([1]; RP-TLC, DMF-water mobile phase, room temperature)	IC50 (HL-60 cells) [µM]	erythrocyte morphology (in words) (erythrocytes)	IC50 (WM-115 cells; Homo sapiens, WM-115, 48 h) [µM]	IC50 (NALM-6 cells; Homo sapiens, NALM-6, 48 h) [µM]	IC50 (COLO-205 cells; Homo sapiens, COLO 205, 48 h) [µM]	chromatographic logP ([1]; RP-18 F254S TLC plates)	IC50 (HL-60 cells; Homo sapiens, HL-60, 48 h) [µM]	effect on RBC hemolysis / erythrocyte membrane integrity (in words) [2]
N.N.O=C([O-])C1(C(=O)[O-])CCC1.[Pt+2] [Carboplatin, reference compound]	422 ± 50.2	0.7 ± 0.2	355 ± 73.7	−2.30	4.3 ± 1.3	–	–	–	–	–	–	–
COc1cccc(/C=C2/C(=O)c3ccccc3OC2c2ccccc2)c1 (centres unmarked) [Compound 9, (E)-3-(3-methoxybenzylidene)-2-phenylchroman-4-one]	–	–	–	–	–	echinocytes accounted for the major part of erythrocytes	16.9 ± 3.78	15.7 ± 6.23	170 ± 3.81	5.83	35.9 ± 2.96	–
O=C1CC(c2ccccc2)Oc2ccccc21 (centres unmarked) [flavanone, reference compound]	–	–	–	–	–	echinocyte formation was observed	–	–	–	–	–	Neither flavanone nor chromanone was found to have any unfavourable effect on the erythrocyte membrane over the whole concentration range
N.N.[Cl][Pt][Cl] [Cisplatin, reference compound]	18.2 ± 4.3	0.7 ± 0.3	61.5 ± 3.2	–	0.8 ± 0.1	–	–	–	–	–	–	–
